Data reported in patent publication US9145351B2, “Azole derivatives, methods for producing the same, intermediate thereof, agro-horticultural agents” (KUREHA CORPORATION, priority 2009, dated 2015).

Columns and labels:
[1] = test system: Puccinia recondita; assay: Efficacy test against wheat brown rust, 100 mg/L and 10 mg/L (Experimental Example 2); format: in vivo; details: nine to 14 days after inoculation; for efficacy compared with compound (1): 10 mg/L sprayed at 1,000 L/ha; for pest or weed control at 100 µg/mL: Puccinia recondita, 336 h, 100 mg/L sprayed at 1,000 L/ha, read-out: Protective value
Protocol: Onto a wheat plant (variety: NORIN No. 61) grown to the two-leaf phase using a square plastic pot (6 cm×6 cm), a wettable formulation such as Formulation Example 1 which was diluted and suspended in water at a certain concentration (100 mg/L and 10 mg/L) was sprayed at a rate of 1,000 L/ha. The sprayed leaves were air-dried, and inoculated with spore suspension of Puccinia recondita (adjusted at 200 spores/vision, […] was added at 60 ppm) by spraying, and kept at 25 degrees C. and a high humidity for 48 hours. Thereafter, the plant was kept in a greenhouse. Nine to 14 days after inoculation, the wheat brown rust lesion degree was investigated, and the protective value was calculated by the following equation. Protective value (%)=(1-lesion degree in sprayed plot/lesion degree in unsprayed plot)×100

[2] = test system: Septoria tritici; assay: Microplate test of biocidal effect on wheat Septoria blotch (Experimental Example 4); format: cell-based; details: Zymoseptoria tritici, 240 h; % mycelium growth inhibition, absorbance 550 nm, 20 degrees C. for about 10 days; read-out: activity level (EC80)
Protocol: A spore suspension of wheat Septoria blotch (Septoria tritici) (spore concentration: 1×10^6 cells/ml) was prepared, and subjected to 100-fold dilution with a PD medium. A flat 96-well microplate was provided and 1 microliter of the test compound solution formed by dissolution in dimethyl sulfoxide (DMSO) at a concentration 100 times the test concentration was dispensed to the microplate, and then 100 microliter of the medium containing the spore was added and stirred thoroughly. […] R=100×(dc−dt)/dc: R: % mycelium growth inhibition dc: Absorbance of non-treatment zone dt: Absorbance of treatment zone

[3] = test system: Aspergillus sp.; assay: Plate medium assay, industrial material deteriorating microorganism, Aspergillus (Experimental Example 5); format: cell-based; details: treatment at 50 mg/l, PDA plate medium, read-out: growth inhibition grade
Protocol: (§1) In this Experimental Example, the fungicidal effects of the inventive compounds on various phytopathogenic fungi for plants and hazardous microorganism for industrial materials were examined by the methods described below. Each inventive compound was dissolved in 2 ml of dimethyl sulfoxide. 0.6 ml of this solution was added to 60 nil of a PDA medium (potato dextrose agar medium) at about 60 degrees C., which was mixed thoroughly in a 100-ml conical flask, and poured into a dish, where it was solidified, thereby obtaining a plate medium containing the inventive compound at 50 mg/L and 5 mg/L. On the other hand, a subject microorganism previously cultured on a plate medium was cut out using a cork borer whose diameter was 4 mm, and inoculated to the test compound-containing plate medium described above. […] The growth degree of the microorganism on the test compound-containing plate medium thus observed was compared with the growth degree of the microorganism in the untreated group, and % mycelial growth inhibition was calculated by the following equation. R=100(dc-dt)/dc wherein R=% mycelial extension inhibition, dc=flora diameter in untreated plate, dt=flora diameter in treated plate. The results obtained as described above were evaluated as one of the 5 grades according to the following criteria.

[4] = test system: Trichoderma sp.; assay: Plate medium assay, industrial material deteriorating microorganism, Trichoderma (Experimental Example 5); format: cell-based; details: treatment at 50 mg/l, PDA plate medium, read-out: growth inhibition grade
Protocol: as §1

[5] = test system: Penicillium sp.; assay: Plate medium assay, industrial material deteriorating microorganism, Penicillium (Experimental Example 5); format: cell-based; details: treatment at 50 mg/l, PDA plate medium, read-out: growth inhibition grade
Protocol: as §1

[6] = test system: Cladosporium sp.; assay: Plate medium assay, industrial material deteriorating microorganism, Cladosporium (Experimental Example 5); format: cell-based; details: treatment at 50 mg/l, PDA plate medium, read-out: growth inhibition grade
Protocol: as §1

[7] = test system: Mucor sp.; assay: Plate medium assay, industrial material deteriorating microorganism, Mucor (Experimental Example 5); format: cell-based; details: treatment at 50 mg/l, PDA plate medium, read-out: growth inhibition grade
Protocol: as §1

[8] = test system: Aureobasidium sp.; assay: Plate medium assay, industrial material deteriorating microorganism, Aureobasidium (Experimental Example 5); format: cell-based; details: treatment at 50 mg/l, PDA plate medium, read-out: growth inhibition grade
Protocol: as §1

[9] = test system: Coriolus versicolor; assay: Plate medium assay, wood denaturing microorganism Kawaratake (Experimental Example 5); format: cell-based; details: Trametes versicolor; treatment at 50 mg/l, PDA plate medium; read-out: growth inhibition grade
Protocol: as §1

[10] = test system: Botrytis cinerea; assay: Efficacy test against cucumber gray mold (Experimental Example 1); format: in vivo; details: 96 h, four days after inoculation, read-out: Protective value; for pest or weed control at 50 µg/mL: 50 mg/L sprayed at 1,000 L/ha; for pest or weed control at 100 µg/mL: 100 mg/L sprayed at 1,000 L/ha
Protocol: Onto a cucumber (variety:SHARP1) plant in its cotyledon phase grown using a square plastic pot (6 cm×6 cm), a wettable formulation such as Formulation Example 1 which was diluted and suspended in water at a certain concentrations (100 mg/L and 50 mg/L) was sprayed at a rate of 1,000 L/ha. The sprayed leaves were air-dried, and loaded with a paper disc (8 mm in diameter) soaked in a spore suspension of Botrytis cinerea, and kept at 20 degrees C. and a high humidity. Four days after inoculation, the cucumber gray mold lesion degree was investigated, and the protective value was calculated by the following equation. Protective value (%)=(1−mean lesion degree in sprayed plot/mean lesion degree in unsprayed plot)×100

Structure (SMILES): C[C@@]1(CCl)CC[C@@H](Cc2ccc(Cl)cc2)[C@]1(O)Cn1cncn1 (racemic) [Compound I-101]
- efficacy compared with compound (1) [1]: higher efficacy than that of compound (1)

Structure (SMILES): CC[C@]1(CCl)CC[C@@H](Cc2ccc(Cl)cc2)[C@]1(O)Cn1cncn1 (racemic) [Compound I-36, (1RS,2SR,5SR)-5-(4-chlorobenzyl)-2-chloromethyl-2-ethyl-1-(1H-1,2,4-triazol-1-ylmethyl)cyclopentanol]
- efficacy compared with compound (1) [1]: higher efficacy than that of compound (1)
- pest or weed control at 100 µg/mL [1]: ≥ 90%
- EC80 [2]: ≤ 0.2 µg/mL
- inhibition at 50 µg/mL [3]: 60 to 80%
- inhibition at 50 µg/mL [4]: 60 to 80%
- inhibition at 50 µg/mL [5]: 60 to 80%
- inhibition at 50 µg/mL [6]: 60 to 80%
- inhibition at 50 µg/mL [7]: 60 to 80%
- inhibition at 50 µg/mL [8]: 60 to 80%
- inhibition at 50 µg/mL [9]: 60 to 80%

Structure (SMILES): C[C@]1(CCl)CC[C@@H](Cc2ccc(Cl)cc2)[C@]1(O)Cn1ccnc1 (racemic) [Compound I-244, (1RS,2SR,5SR)-5-(4-chlorobenzyl)-2-chloromethyl-2-methyl-1-imidazol-1-ylmethylcyclopentanol]
- pest or weed control at 100 µg/mL [1]: ≥ 90%
- EC80 [2]: ≤ 0.2 µg/mL
- inhibition at 50 µg/mL [3]: 60 to 80%
- inhibition at 50 µg/mL [4]: 60 to 80%
- inhibition at 50 µg/mL [5]: 60 to 80%
- inhibition at 50 µg/mL [6]: 60 to 80%
- inhibition at 50 µg/mL [7]: 60 to 80%
- inhibition at 50 µg/mL [8]: 60 to 80%
- inhibition at 50 µg/mL [9]: 60 to 80%

Structure (SMILES): C[C@@]1(CCl)CC[C@H](Cc2ccc(Cl)cc2)[C@]1(O)Cn1cncn1 (racemic) [Compound I-401, (1RS,2RS,5RS)-5-(4-chlorobenzyl)-2-chloromethyl-2-methyl-1-[1,2,4]triazol-1-ylmethylcyclopentanol]
- inhibition at 50 µg/mL [3]: 60 to 80%
- inhibition at 50 µg/mL [4]: 60 to 80%
- inhibition at 50 µg/mL [5]: 60 to 80%
- inhibition at 50 µg/mL [6]: 60 to 80%
- inhibition at 50 µg/mL [7]: 60 to 80%
- inhibition at 50 µg/mL [8]: 60 to 80%
- inhibition at 50 µg/mL [9]: 60 to 80%

Structure (SMILES): C[C@]1(CBr)CC[C@@H](Cc2ccc(F)cc2)[C@]1(O)Cn1cncn1 (racemic) [Compound I-601, (1RS,2SR,5SR)-2-bromomethyl-5-(4-fluorobenzyl)-2-methyl-1-(1H-1,2,4-triazol-1-ylmethyl)cyclopentanol]
- pest or weed control at 50 µg/mL [10]: ≥ 80%
- pest or weed control at 100 µg/mL [10]: ≥ 80%
- efficacy compared with compound (1) [1]: higher efficacy than that of compound (1)
- pest or weed control at 100 µg/mL [1]: ≥ 90%
- EC80 [2]: ≤ 0.2 µg/mL
- inhibition at 50 µg/mL [3]: 60 to 80%
- inhibition at 50 µg/mL [4]: 60 to 80%
- inhibition at 50 µg/mL [5]: 60 to 80%
- inhibition at 50 µg/mL [6]: 60 to 80%
- inhibition at 50 µg/mL [7]: 60 to 80%
- inhibition at 50 µg/mL [8]: 60 to 80%
- inhibition at 50 µg/mL [9]: 60 to 80%

Structure (SMILES): C[C@]1(CCl)CC[C@H](Cc2ccc(Cl)cc2)[C@]1(O)Cn1cncn1 (racemic) [Compound I-301, (1RS,2SR,5RS)-5-(4-chlorobenzyl)-2-chloromethyl-2-methyl-1-[1,2,4]triazol-1-ylmethylcyclopentanol]
- pest or weed control at 100 µg/mL [1]: ≥ 90%
- EC80 [2]: ≤ 0.2 µg/mL
- inhibition at 50 µg/mL [3]: 60 to 80%
- inhibition at 50 µg/mL [4]: 60 to 80%
- inhibition at 50 µg/mL [5]: 60 to 80%
- inhibition at 50 µg/mL [6]: 60 to 80%
- inhibition at 50 µg/mL [7]: 60 to 80%
- inhibition at 50 µg/mL [8]: 60 to 80%
- inhibition at 50 µg/mL [9]: 60 to 80%

Structure (SMILES): C[C@@]1(CCCl)CC[C@@H](Cc2ccc(Cl)cc2)[C@]1(O)Cn1cncn1 (racemic) [Compound I-104, (1RS,2SR,5SR)-5-(4-chlorobenzyl)-2-(2-chloroethyl)-2-methyl-1-(1H-1,2,4-triazol-1-ylmethyl)cyclopentanol]
- pest or weed control at 50 µg/mL [10]: ≥ 80%
- pest or weed control at 100 µg/mL [10]: ≥ 80%
- efficacy compared with compound (1) [1]: higher efficacy than that of compound (1)
- pest or weed control at 100 µg/mL [1]: ≥ 90%
- EC80 [2]: ≤ 0.2 µg/mL
- inhibition at 50 µg/mL [3]: 60 to 80%
- inhibition at 50 µg/mL [4]: 60 to 80%
- inhibition at 50 µg/mL [5]: 60 to 80%
- inhibition at 50 µg/mL [6]: 60 to 80%
- inhibition at 50 µg/mL [7]: 60 to 80%
- inhibition at 50 µg/mL [8]: 60 to 80%
- inhibition at 50 µg/mL [9]: 60 to 80%

Structure (SMILES): C[C@]1(CCl)CC[C@@H](Cc2ccc(OC(F)(F)F)cc2)[C@]1(O)Cn1cncn1 (relative stereo) [Compound I-79]
- efficacy compared with compound (1) [1]: higher efficacy than that of compound (1)
